From US20260308158A1, “TARGETING RNAS ASSOCIATED WITH TAUOPATHIES WITH SMALL MOLECULES” (University of Florida Research Foundation, Incorporated, priority 2023, published 2026)

Assays:
WT model RNA = assay: Optical melting, WT RNA; type: binding; details: 2 at 1.5 μM
Method: Optical Melting Experiments. The thermal stabilities of WT, DDPAC, and DDPAC+I17T model RNAs were analyzed by optical melting in the presence or absence of compound 1 or 2 as previously described.^18 The RNAs (2 μM) were heated to 95° C. in 1×PBS buffer and slowly cooled to room temperature. The samples were then cooled to 15° C. in the presence of compound 1 (10 μM; 0.1% (v/v) DMSO), 2 (1.5 μM; 0.1% (v/v) DMSO) or vehicle (0.1% (v/v) DMSO) and then heated to 85° C. at a rate of 1° C. per min. Absorbance as a function of temperature was measured at 260 nm using a Beckman Coulter DU800 UV/vis spectrophotometer. Melting curves were fitted with MeltWin 3.5.^31

LAN5 transcriptome = assay: RNA-seq transcriptome-wide selectivity in LAN5 cells; type: cell-based, human
Method: RNA-Seq. LAN5 cells in 12-well plate (~60% confluency) were treated with 2 (1.5 μM), 0.1% (v/v) DMSO (vehicle), 4R-to-3R tau ASO (0.5 μM), or scrambled ASO (0.5 μM) for 48 h. Total RNA was extracted using an RNeasy Mini Kit (Qiagen) per the manufacturer's protocol. Next, rRNA was depleted using NEBNext rRNA depletion modules (E6310L, New England Biosciences) and prepared with NEBNext Ultra II Dir RNA Lib Prep Kit (E7760S, New England Biosciences) according to the manufacturer's protocol. The prepared libraries were processed with NextSeq 500/550 High Output Kit v2.5 (Illumina, 20024907) per the manufacturer's protocol and then sequenced on a NextSeq 500. After sequencing, the BCL files were converted to FASTQ files using basemount/0.12.8.1516 and bcl2fastq/2.17.1.14.^33 The sequencing depth was over 82 million for each sample.
FastQC^34 and RSeQC^35 were used to determine the quality of reads and any overrepresentation of sequences. HISAT2^36 was used to map the reads to the reference human genome (hg19), and the output SAM files were converted to BAM files and sorted by index. Kallisto^37 and NCBI reference sequences (RefSeq)^38 were used for gene quantification to calculate transcripts per million (TPM). Differentially expressed genes were detected with Sleuth^39 and determined by a multiple test corrected p-value<0.05. Splicing event PSI values were quantitated using MISO.^40

7-deaza-guanosine WT RNA = assay: Fluorescent binding affinity, 7-deaza-guanosine WT RNA; details: n=3, read-out: Kd (affinity for the modified RNA)
Method: Fluorescent Binding Affinity Measurements. Binding assays were completed as previously described.^30 Briefly, the RNA of interest was folded in 1× Assay Buffer-1 (AB1: 8 mM Na2HPO4, pH 7.0, 185 mM NaCl, and 1 mM EDTA) by heating at 95° C. for 30 s followed by slowly cooling to room temperature. Bovine serum albumin (BSA) was then added to a final concentration of 40 μg/mL to afford 1× Assay Buffer-2 (AB2: 8 mM Na2HPO4, pH 7.0, 185 mM NaCl, 1 mM EDTA, and 40 μg/mL BSA). The RNA solution was serial diluted with 1×AB2. Then, compound of interest was added to the RNA solutions to a final concentration of 0.5 μM. […] Fluorescence intensity was measured using a Tecan Plate Reader (Gain: 100, Integration time: 40 μs). […] The change in fluorescence of the small molecule was calculated by its comparison to samples lacking RNA. Binding affinity was calculated using Equation 1, as previously described:^30
where I and I0 are the measured fluorescence intensity of the compound with or without RNA, respectively, Δε is the difference between the fluorescence intensity with the infinite concentration of RNA and the fluorescence intensity without RNA, [SM]0 and [RNA]0 are the concentrations of the small molecule (SM) and RNA, respectively, and Kd is the dissociation constant.

[1] = tested on: WT MAPT mini-gene (exon 10 splicing); assay: 4R/3R MAPT mRNA by RT-qPCR, HeLa cells transfected with WT mini-gene; type: cell-based
Method: RNA Isolation and Real-Time Quantitative PCR (RT-qPCR). HeLa cells were treated as described in the Luciferase Reporter assay to Study Exon 10 Alternative Splicing. LAN5 cells were seeded in 12-well plates at 0.2×10^6 cells per well, treated with compound or ASO, and incubated for 48 h. Compound stocks prepared in DMSO and ASO stocks prepared in water were diluted in growth medium and added to cells. Total RNA was extracted from cells and analyzed via RT-qPCR to determine levels of 3R and 4R tau mRNA. In brief, the cells were washed with 1×DPBS and then lysed in the well using 300 μL of Lysis Buffer provided in a Quick-RNA MiniPrep kit (Zymo Research), which was used to extract total RNA per the manufacturer's protocol including the on-column DNase I digestion. The concentration of total RNA was measured by NanoDrop 2000 (Thermo Fisher Scientific). Only samples with OD260/OD280>1.8 were carried forward for analysis. Reverse transcription (RT) was carried out on 200 ng of total RNA using a qScript cDNA synthesis kit (QuantaBio) in a total volume of 10 μL according to the manufacturer's protocol. […] 4R/3R ratio were analyzed using ΔΔCt method using Equation 2: […]

Kd (7-deaza-guanosine WT RNA): 3.4 ± 0.9 µM
SMILES: COc1cc(N)ncc1CCCN(C)CCCn1cnc2c3ccccc3n(C)c2c1=O [Compound 2, 3-(3-((3-(6-amino-4-methoxypyridin-3-yl)propyl)(methyl)amino)propyl)-5-methyl-3,5-dihydro-4H-pyrimido[5,4-b]indol-4-one]
increase of Tm (WT model RNA): 0.76±0.1 °C
expression of MAPT gene (LAN5 transcriptome; 2 at 1.5 μM or ASO 0.5 μM): Neither 2 nor the ASO altered the expression of MAPT gene
alternative splicing of MAPT exons (exon 10) (LAN5 transcriptome; 2 at 1.5 μM or tau ASO 0.5 μM): only one significantly reduced
genes unchanged, percent (LAN5 transcriptome; 2 at 1.5 μM, 48 h): 99.73%
PSI10 (PSI of MAPT exon 10) vs vehicle ([1]; HeLa, WT mini-gene): downregulated
inhibition at 1.5 µM ([1]; Homo sapiens, 2 at 1.5 μM, 48 h, HeLa WT mini-gene, read-out: reduction of 4R/3R ratio (mRNA)): 41 ± 3%
